According to US12043602B2, “Fendiline derivatives” (The Board of Regents of the University of Texas System, priority 2019, dated 2024):
pEC50: −log10 of the molar value. Like-named read-outs stand apart in the source and are kept apart here.

What was measured:
mGFP-K-RASG12V = mGFP-K-RASG12V (Homo sapiens (Human), UniProt P01116, G12V); assay: K-Ras mislocalization assay (confocal microscopy, Manders coefficient); assay type: cell-based; set-up: key to Emax: Manders coefficient: fraction of mCherry-CAAX co-localizing with GFP-K-Ras; details: for IC50: 48 h treatment, read-out: IC50 (μM), KRASG12V mislocalization; for Emax: maximal effect, Manders coefficient
Method: Madine Darby Canine Kidney epithelial cells (MDCK) stably co-expressing mGFP-tagged full length oncogenic mutant K-Ras (GFP—K-RASG12V) or mGFP-LactC2 (peptide probe for phosphatidylserine) and mCherry-tagged to the amino acids 179-189 of H-RasC181S, C184S (mCherry-CAAX, localizes primarily to endomembranes) were grown in DMEM-high glucose/sodium pyruvate/10% FBS. The medium was supplemented with 1× Penicillin/Streptomycin for fluorescence microscopy assays, to avoid any microbial contamination from the test compounds added. KLE and Hec50 cells were maintained in DMEM-F-12 medium supplemented with 10% FBS. Hec-1A and Hec-1B cells were grown in McCoy's 5a medium supplemented with 10% FBS. ESS-1 cells were grown in RPMI 1640 medium supplemented with 20% FBS. MPanc96 cells were grown in DMEM supplemented with 10% FBS, MiaPaCa-2 cells in DMEM supplemented with 10% FBS and 2.5% horse serum and all other cell lines were grown in RPMI 1640 supplemented with 10% FBS. All cancer cell media were supplemented with ×Penicillin/Streptomycin. All cell lines were grown at 37° C. with 5% CO2.
MDCK co-expressing GFP—K-RASG12V or LactC2 and mCherry-CAAX were grown on coverslips, treated with 0.1% vehicle (DMSO) or various concentrations of drugs for 48 h, and fixed with 4% paraformaldehyde. The coverslips were mounted in mowiol and imaged by confocal microscopy (Nikon A1) using a 60× objective. Using ImageJ software v1.42q, images were converted to 8-bit, and a threshold to a control pixel of each image was set. As a measure of K-Ras/LactC2 mislocalization, the fraction of mCherry-CAAX co-localizing with mGFP-K-RASG12V was calculated using a Manders coefficient plugin downloaded from Wright Cell Image Facility. The fraction of mCherry-CAAX co-localizing with mGFP-RASG12V (Mander's coefficient) is proportional to K-Ras mislocalization.

[1] = tested on: MDCK cells co-expressing GFP-K-RASG12V and mCherry-CAAX; assay: Cytotoxicity in mislocalization screen (death of all cells in well); details: drug caused death of all cells in well at 30 μM
[2] = batch 4 compounds, MDCK cells, 48 h, title calls it IC50, read-out: EC50

Row | IC50 (mGFP-K-RASG12V; MDCK cells) [µM] | Emax (mGFP-K-RASG12V; MDCK cells, 48 h) | Structure (SMILES) | Cytotoxic at 30 μM [1] | also measured
1 | – | 0.426 | C[C@@H](NCCN1c2ccccc2CCc2ccccc21)c1ccc(F)cc1 [NY0552, (R)-2-(10,11-dihydro-5H-dibenzo[b,f]azepin-5-yl)-N-(1-(4-fluorophenyl)ethyl)ethan-1-amine] | No | pEC50 (mGFP-K-RASG12V; [2]): 5.39
2 | 3.19 | 0.666 | C[C@H](c1ccc(F)cc1)N(CC=C(c1ccccc1)c1ccccc1)CCn1cc(CN(C)C)nn1 [PW306, (R)-N-(2-(4-((dimethylamino)methyl)-1H-1,2,3-triazol-1-yl)ethyl)-N-(1-(4-fluorophenyl)ethyl)-3,3-diphenylprop-2-en-1-amine] | Yes | –
3 | 2.02 | 0.694 | COc1ccc([C@@H](C)N(CC=C(c2ccccc2)c2ccccc2)CCCC=O)cc1 [NY0445, (R)-4-((3,3-diphenylallyl)(1-(4-methoxyphenyl)ethyl)amino)butanal] | No | –
4 | 3.37 | 0.83 | C(CN(CCN1CCCC1)Cc1cc2cccnc2[nH]1)=C(c1ccccc1)c1ccccc1 [PW293, N-((1H-pyrrolo[2,3-b]pyridin-2-yl)methyl)-3,3-diphenyl-N-(2-(pyrrolidin-1-yl)ethyl)prop-2-en-1-amine] | Yes | –
5 | 90.1 | 0.866 | CN1CCN(CCN(CC=C(c2ccccc2)c2ccccc2)[C@@H]2CCc3ccccc32)CC1 [NY0369b, (R)-N-(3,3-diphenylallyl)-N-(2-(4-methylpiperazin-1-yl)ethyl)-2,3-dihydro-1H-inden-1-amine] | Yes | –
6 | 0.42 | 0.713 | C(CN(CC=C(c1ccccc1)c1ccccc1)[C@@H]1C[C@H]1c1ccccc1)=C(c1ccccc1)c1ccccc1 [NY022601, (1R,2S)-N,N-bis(3,3-diphenylallyl)-2-phenylcyclopropanamine] | No | –
7 | – | 0.858 | CCCCNC(=O)N(CC=C(c1ccccc1)c1ccccc1)[C@H](C)c1ccc(OC)cc1 [NY0507, (R)-3-butyl-1-(3,3-diphenylallyl)-1-(1-(4-methoxyphenyl)ethyl)urea] | No | pEC50 (mGFP-K-RASG12V; [2]): 5.77
8 | – | 0.685 | C(CN(CCN1CCCC1)[C@@H]1C[C@H]1c1ccccc1)=C(c1ccccc1)c1ccccc1 [NY0592, (1R,2S)-N-(3,3-diphenylallyl)-2-phenyl-N-(2-(pyrrolidin-1-yl)ethyl)cyclopropan-1-amine] | Yes | pEC50 (mGFP-K-RASG12V; [2]): 5.25
9 | – | 0.733 | C[C@@H](NCC(=O)N1c2ccccc2Sc2ccccc21)c1ccc(F)cc1 [NY0573, (R)-2-((1-(4-fluorophenyl)ethyl)amino)-1-(10H-phenothiazin-10-yl)ethan-1-one] | No | pEC50 (mGFP-K-RASG12V; [2]): 5.76
10 | 12.7 | 0.777 | COc1ccc([C@@H](C)N(CC=C(c2ccccc2)c2ccccc2)CCCCO)cc1 [NY0448, (R)-4-((3,3-diphenylallyl)(1-(4-methoxyphenyl)ethyl)amino)butan-1-ol] | Yes | –
11 | 3.97 | 0.592 | O=S(=O)(c1ccc(F)cc1)N(CC=C(c1ccccc1)c1ccccc1)CCN1CCCC1 [PW277, N-(3,3-diphenylallyl)-4-fluoro-N-(2-(pyrrolidin-1-yl)ethyl)benzenesulfonamide] | Yes | –
12 | – | 0.895 | CCN1CCN(CCN(CC=C(c2ccccc2)c2ccccc2)[C@H](C)c2ccc(OC)cc2)CC1 [NY0589, (R)-N-(2-(4-ethylpiperazin-1-yl)ethyl)-N-(1-(4-methoxyphenyl)ethyl)-3,3-diphenylprop-2-en-1-amine] | Yes | pEC50 (mGFP-K-RASG12V; [2]): 5.66
13 | 6.03 | 0.709 | O=C(OCc1ccccc1)N(CC=C(c1ccccc1)c1ccccc1)CCN1CCCC1 [PW280, benzyl (3,3-diphenylallyl)(2-(pyrrolidin-1-yl)ethyl)carbamate] | Yes | –

The remaining lines, values behind:

Row | Structure (SMILES) | IC50 (mGFP-K-RASG12V; MDCK cells) [µM] | Emax (mGFP-K-RASG12V; MDCK cells, 48 h) | Cytotoxic at 30 μM [1] | also measured
14 | C[C@H](c1ccc(Cl)cc1)N(CC=C(c1ccccc1)c1ccccc1)CCN1CCN(C)CC1 [NY0518, (R)-N-(1-(4-chlorophenyl)ethyl)-N-(2-(4-methylpiperazin-1-yl)ethyl)-3,3-diphenylprop-2-en-1-amine] | 3.8 | 0.695 | Yes | pEC50 (mGFP-K-RASG12V; [2]): 5.42; Emax (mGFP-K-RASG12V; MDCK cells, 48 h, listed as 15f): 0.70 ± 0.02
15 | C=CCN(CC=C(c1ccccc1)c1ccccc1)[C@H](C)c1ccc(OC)cc1 [NY0217, (R)-N-allyl-N-(1-(4-methoxyphenyl)ethyl)-3,3-diphenylprop-2-en-1-amine] | 13 | 0.47 | No | –
16 | C=CC(=O)N1CCN(CCN(CC=C(c2ccccc2)c2ccccc2)[C@H](C)c2ccc(OC)cc2)CC1 [NY0357a, (R)-1-(4-(2-((3,3-diphenylallyl)(1-(4-methoxyphenyl)ethyl)amino)ethyl)piperazin-1-yl)prop-2-en-1-one] | 2.55 | 0.697 | Yes | –
17 | COc1ccc([C@@H](C)N(CC=C(c2ccccc2)c2ccccc2)C(=O)C(C)F)cc1 (stereo partly drawn) [NY314, N-(3,3-diphenylallyl)-2-fluoro-N-((R)-1-(4-methoxyphenyl)ethyl)propanamide] | 1.69 | 0.842 | No | –
18 | COC(=O)CN(CC=C(c1ccccc1)c1ccccc1)[C@H](C)c1ccc(OC)cc1 [NY0228, (R)-methyl 2-((3,3-diphenylallyl)(1-(4-methoxyphenyl)ethyl)amino)acetate] | – | 0.705 | No | –
19 | COc1ccc([C@H](C)N(CC=C(c2ccccc2)c2ccccc2)CCN(C)C)cc1 [NY0434] | 4.69 | 0.835 | No | –
20 | C(CNC1(c2ccccc2)CCCCC1)=C(c1ccccc1)c1ccccc1 [NY0514, N-(3,3-diphenylallyl)-1-phenylcyclohexan-1-amine] | – | 0.802 | No | pEC50 (mGFP-K-RASG12V): 5.87
21 | C[C@H](c1ccc(F)cc1)N(C/C=C(/c1ccc(F)cc1)c1ccc(C(F)(F)F)cc1)CCN1CCCC1 [PW455, (R,E)-3-(4-fluorophenyl)-N-(1-(4-fluorophenyl)ethyl)-N-(2-(pyrrolidin-1-yl)ethyl)-3-(4-(trifluoromethyl)phenyl)prop-2-en-1-amine] | 1.86 | 0.821 | Yes at 10 uM | –
22 | COc1ccc([C@@H](C)N(CC=C(c2ccccc2)c2ccccc2)C(=O)CN2CCN(C)CC2)cc1 [PW125, (R)-N-(3,3-diphenylallyl)-N-(1-(4-methoxyphenyl)ethyl)-2-(4-methylpiperazin-1-yl)acetamide] | 7.09 | 0.514 | Yes | IC50 (mGFP-K-RASG12V; MDCK cells, listed as 20): 7.1 µM; Emax (mGFP-K-RASG12V; MDCK cells, 48 h, listed as 20): 0.51 ± 0.02
23 | C(CN1CCN(c2ccccc2)CC1)=C(c1ccccc1)c1ccccc1 [NY307, 1-(3,3-diphenylallyl)-4-phenylpiperazine] | 4.2 | 0.858 | No | –
24 | CCN(CC=C(c1ccccc1)c1ccccc1)[C@H](C)c1ccc(OC)cc1 [NY0429, (R)-N-ethyl-N-(1-(4-methoxyphenyl)ethyl)-3,3-diphenylprop-2-en-1-amine] | 10.6 | 0.835 | No | IC50 (mGFP-K-RASG12V; MDCK cells, listed as 11b): 10.6 µM; Emax (mGFP-K-RASG12V; MDCK cells, 48 h, listed as 11b): 0.84 ± 0.02
25 | COc1cccc([C@@H](C)N(CC=C(c2ccccc2)c2ccccc2)CCN2CCN(C)CC2)c1 [NY0452, (R)-N-(1-(3-methoxyphenyl)ethyl)-N-(2-(4-methylpiperazin-1-yl)ethyl)-3,3-diphenylprop-2-en-1-amine] | 2.81 | 0.752 | Yes | IC50 (mGFP-K-RASG12V; MDCK cells, listed as 15c): 2.8 µM; Emax (mGFP-K-RASG12V; MDCK cells, 48 h, listed as 15c): 0.75 ± 0.04
26 | CC1CCc2ccccc2N1CC=C(c1ccccc1)c1ccccc1 (stereo not shown) [NY304, 1-(3,3-diphenylallyl)-2-methyl-1,2,3,4-tetrahydroquinoline] | 2.95 | 0.751 | No | –
